# Test results from US12129265B2, “Therapeutic agents and uses thereof” (Ankh Life Sciences Limited, priority 2020, dated 2024).
# Read-outs that look alike come from different tables or passages of the source.
# Experiments:
# [1] = system: Human Myeloma, Human Lymphoma, Solid Human tumor and Jeko-1 tumor cell lines; experiment: CellTiter-Glo in vitro cell proliferation assay, Example 8, whole panel; assay type: cell-based; conditions: for IC50 values compared with the monoharmaline 518F014 compound: 72 hours, cell lines of Table 14
# Method: In this Example, in vitro cell proliferation assays were performed using: (1) Human Myeloma tumor cell lines; (2) Human Lymphoma tumor cell lines; (3) Solid Human tumor cell lines; and (4) Parental, Lenalidomide resistant and Bortezomib resistant Jeko-1 Mantle cell Lymphoma tumor cell lines. The compounds tested were three diharmaline compounds, namely the 518B562 (or simply 562), 560, and 561 compounds. In addition, a monoharmaline product designated as 518F014 was also tested. This monoharmaline product had the following structure:
# Each proliferation assay was carried out as follows. The test cells were plated in growth media using a 384-well microtiter plate at 50 μL volume. The cells were incubated for 24 hours at 37° C. in a humidified incubator. After 24 hours of incubation, the test compounds were added to the test wells in DSMO solvent, at concentrations ranging from 0.0075-100 μM. Control wells received equal volumes of DSMO, without compound. Following drugging, the cells were incubated for 72 hours at 37° C. in a humidified incubator. After this exposure, 100 μL of a 1:1 mixture of sterile water and CellTiter-Glo® reagent (Promega) was added to each well. The plates were then incubated for 60 minutes at room temperature, followed by recording the luminescence value of each well using a luminometer as a measure of cell proliferation.
# JIM1 cells = experiment: CellTiter-Glo in vitro cell proliferation assay, Example 8; assay type: cell-based, Human
# Method in brief: (§1)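 DMSO-only wells served as controls against compound-treated wells (0.0075–100 μM) in a 72 h, 37 °C proliferation test. Readout: CellTiter-Glo luminescence.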
# ASPC-1 cells = experiment: as above; assay type: cell-based, Human; conditions: Homo sapiens, ASPC1, ASPC-1, Pancreatic
# Method in brief: as §1
# MDA-MB-231 cells = experiment: as above; assay type: cell-based, Human; conditions: Homo sapiens, MDA-MB-231, Triple Negative Breast
# Method in brief: as §1
# BxPC-3 cells = experiment: as above; assay type: cell-based, Human; conditions: Homo sapiens, BxPC-3, Pancreatic
# Method in brief: as §1
# KMS-34 cells = experiment: as above; assay type: cell-based, Human
# Method in brief: as §1
# MIA PaCa-2 cells = experiment: as above; assay type: cell-based, Human; conditions: Homo sapiens, MIA PaCa-2, Pancreatic
# Method in brief: as §1
# SiHA cells = experiment: as above; assay type: cell-based, Human; conditions: Homo sapiens
# Method in brief: as §1
# S2-007 cells = experiment: Cell colony formation assay, Example 16; assay type: cell-based, human; conditions: 4 μg and 6 μg, 24, 48, and 72 hours, FIG. 123
# Method: (§2) In this example, the 560 and 562 compounds of Examples 12 and 14, respectively, were tested using cell colony formation assays. 500 viable S2-007 and MiaCaPa-2 cells were plated in six-well dishes and allowed to grow for 24 hours. The cells were then incubated in the presence or absence of the 560 and 562 compounds for 72 hours. The compound-containing media were then removed, and the cells were washed in PBS and incubated for an additional 10 days in complete media. The resultant colonies were then washed in PBS and fixed using 10% formalin for 10 minutes at room temperature, followed by washing with PBS and staining with Crystal Violet. The colonies of the control and compound-supplemented assays were then counted and compared.
# MiaPaCa-2 cells = experiment: Cell colony formation assay, Example 16; assay type: cell-based, human
# Method: as §2
# Jeko-1 Parental cells = experiment: CellTiter-Glo in vitro cell proliferation assay, Example 8; assay type: cell-based; conditions: Homo sapiens, Mantle Cell Lymphoma, 72 hours
# Method in brief: as §1
# [2] = system: Jeko-1 Bortezomib resistant cells; experiment: as above; assay type: cell-based; conditions: Homo sapiens, Mantle Cell Lymphoma, 72 hours
# Method in brief: as §1
# [3] = system: Jeko-1 Lenalidomide resistant cells; experiment: as above; assay type: cell-based; conditions: Homo sapiens, Mantle Cell Lymphoma, 72 hours
# Method in brief: as §1
# [4] = system: gene expression in S2-007 human pancreatic cancer cells; experiment: RNA-Seq clustergram/heat map of cancer stem cell markers, Example 11; assay type: cell-based; conditions: 5 micro-g/mL
# Method: In this Example, a clustergram/heat map of RNA sequences for cancer stem cell (CSC) markers was performed before and after treatment of S2-007 human pancreatic cancer cells with 518B562. This experiment was conducted using a Whole Transcriptome Shotgun Sequence (WTSS), followed by bioinformatics data analysis of CSC markers. An RNA-Seq/heat map was generated to obtain a genome-wide gene expression profile of the pancreatic cancer cells.
# One sample of the pancreatic cancer cell line was untreated, while an identical sample was treated with 5 micro-g/mL of 518B562. Comparative RNA sequences were performed on the samples using an Illumina HISeq 2500 sequencer at a 100 bp single read resolution. The sequence readings were mapped to the human genome (assembly GRCh38.re177) using the STAR software (Dobin et al. 2012). Transcript abundance estimates were generated using the Cufflinks software (Trapnell et al. 2010) and differential gene expression estimates were calculated using the Cuffdiff software (Trapnell et al. 2013). RNA-Seq generated around […], of which between 97.2% and 98.3% of the reads mapped to the reference genome.
# [5] = system: Mia-PaCa2 pancreatic cancer cells; experiment: Proliferation assay, Example 10; assay type: cell-based, human
# Method: (§3) In this Example, pancreatic cancer cells (S2-007 and Mia-PaCa2) were treated with the previously described compound 518B562 at different times and concentrations, followed by generation of proliferation assays using the techniques described above. […] After 72 hours of treatment, the IC50 values of the compound against S2-007 and Mia-PaCa2 cells was determined as 3 μg/mL and 5 μg/mL, respectively.
# [6] = system: S2-007 pancreatic cancer cells; experiment: Proliferation assay, Example 10; assay type: cell-based, human
# Method: as §3
# [7] = JIM1, Human Myeloma, 72 hours, read-out: Mean IC50
# [8] = KMS-34, Human Myeloma, 72 hours, read-out: Mean IC50
# [9] = Squamous, 72 hours, read-out: Mean IC50
# [10] = doses of 1-25 μg/mL, time-dependent, 24-72 hours
smiles,measurement,setting,value
COc1ccc2c3c([nH]c2c1)C(CC(CC1=NCCc2c1[nH]c1cc(OC)ccc21)c1ccccc1)=NCC3 [compound 560],IC50 values compared with the monoharmaline 518F014 compound,[1],significantly lower IC50 values
same,IC50,JIM1 cells; [7],5.17 µM
same,IC50,"ASPC-1 cells; 72 hours, read-out: Mean IC50",3.62 µM
same,IC50,"MDA-MB-231 cells; 72 hours, read-out: Mean IC50",3.89 µM
same,IC50,"BxPC-3 cells; 72 hours, read-out: Mean IC50",2.62 µM
same,IC50,KMS-34 cells; [8],6.67 µM
same,IC50,"MIA PaCa-2 cells; 72 hours, read-out: Mean IC50",3.38 µM
same,IC50,SiHA cells; [9],11.6 µM
same,colony formation,S2-007 cells,"significantly disrupted colony formation, particularly at the 6 μg level of use"
same,colony formation,"MiaPaCa-2 cells; 3 μg and 5 μg, 24, 48, and 72 hours, FIG. 124",significantly disrupted colony formation at both levels of use
same,IC50,Jeko-1 Parental cells,4.7 µM
same,IC50,[2],4.08 µM
same,IC50,[3],5.07 µM
"COc1ccc2c3c([nH]c2c1)C(CC(CC1=NCCc2c1[nH]c1cc(OC)ccc21)c1cccc(Oc2ccccc2)c1)=NCC3 [compound 594, diharmaline 3-phenoxybenzaldehyde]",effectiveness in cell proliferation assays,[1]; cell lines of Table 16,effective against a wide variety of cancer cells
same,IC50,"JIM1 cells; Example 24, JIM1, human myeloma, read-out: Mean",7.67 µg/mL
same,IC50,"JIM1 cells; Example 24, JIM1, human myeloma, read-out: Trial A",7.41 µg/mL
same,IC50,"JIM1 cells; Example 24, JIM1, human myeloma, read-out: Trial B",7.92 µg/mL
same,IC50,"ASPC-1 cells; Example 24, read-out: Mean",3.47 µg/mL
same,IC50,"ASPC-1 cells; Example 24, read-out: Trial A",2.94 µg/mL
same,IC50,"ASPC-1 cells; Example 24, read-out: Trial B",3.99 µg/mL
same,IC50,"MDA-MB-231 cells; Example 24, read-out: Mean",3.09 µg/mL
same,IC50,"MDA-MB-231 cells; Example 24, read-out: Trial A",3.1 µg/mL
same,IC50,"MDA-MB-231 cells; Example 24, read-out: Trial B",3.08 µg/mL
same,IC50,"BxPC-3 cells; Example 24, read-out: Mean",3.39 µg/mL
same,IC50,"BxPC-3 cells; Example 24, read-out: Trial A",3.45 µg/mL
same,IC50,"BxPC-3 cells; Example 24, read-out: Trial B",3.33 µg/mL
same,IC50,"KMS-34 cells; Example 24, KMS-34, human myeloma, read-out: Mean",3.89 µg/mL
same,IC50,"KMS-34 cells; Example 24, KMS-34, human myeloma, read-out: Trial A",4.23 µg/mL
same,IC50,"KMS-34 cells; Example 24, KMS-34, human myeloma, read-out: Trial B",3.55 µg/mL
same,IC50,"MIA PaCa-2 cells; Example 24, read-out: Mean",3.49 µg/mL
same,IC50,"MIA PaCa-2 cells; Example 24, read-out: Trial A",3.81 µg/mL
same,IC50,"MIA PaCa-2 cells; Example 24, read-out: Trial B",3.17 µg/mL
same,IC50,"SiHA cells; Example 24, Squamous, read-out: Mean",8.73 µg/mL
same,IC50,"SiHA cells; Example 24, Squamous, read-out: Trial A",8.56 µg/mL
same,IC50,"SiHA cells; Example 24, Squamous, read-out: Trial B",8.89 µg/mL
COc1ccc2c3c([nH]c2c1)C(CC(CC1=NCCc2c1[nH]c1cc(OC)ccc21)c1ccc(O)c(OC)c1)=NCC3 [compound 562],IC50 values compared with the monoharmaline 518F014 compound,[1],significantly lower IC50 values
same,"angiogenesis markers [OXTR, SYCP2, CRHR1, SPEG]",[4],down-regulated
same,"anti-apoptotic markers [TUG1, FABP1, PI3, DOKS]",[4],down-regulated
same,"anti-proliferative markers [NRP1, ATF2A, CYP1b1, ALPP, DEPTOR, MT1F]",[4],up-regulated
same,"apoptotic markers [ICAM5, WNK4, ALPP, LTRC26, SHBG, MT1X]",[4],up-regulated
same,"proliferation signaling markers [FOXj1, SPP1, C3]",[4],down-regulated
same,IC50,JIM1 cells; [7],3.95 µM
same,IC50,"ASPC-1 cells; 72 hours, read-out: Mean IC50",2.15 µM
same,IC50,"MDA-MB-231 cells; 72 hours, read-out: Mean IC50",1.62 µM
same,IC50,"BxPC-3 cells; 72 hours, read-out: Mean IC50",1.6 µM
same,IC50,KMS-34 cells; [8],5.45 µM
same,IC50,"MIA PaCa-2 cells; 72 hours, read-out: Mean IC50",1.81 µM
same,IC50,SiHA cells; [9],5.13 µM
same,colony formation,"MiaPaCa-2 cells; 3 μg, 7 μg, 10 μg, and 12 μg, 24, 48, and 72 hours, FIG. 127","significantly disrupted colony formation, particularly at the higher levels of use"
same,IC50,Jeko-1 Parental cells,4.41 µM
same,IC50,[2],4.81 µM
same,IC50,[3],6.19 µM
same,IC50,"[5]; Homo sapiens, MIA PaCa-2, after 72 hours of treatment",5 µg/mL
same,inhibition of proliferation,[5]; [10],significantly inhibited the proliferation
same,IC50,"[6]; Homo sapiens, Pancreatic cancer cell, after 72 hours of treatment",3 µg/mL
same,inhibition of proliferation,[6]; [10],significantly inhibited the proliferation
